According to US10189854B2, “Substituted pyrimidine compounds” (Grünenthal GmbH, priority 2014, dated 2019):
Counter-ions that a name gives are not always drawn.

Molecular target: human PDE4B1 (Homo sapiens (Human), UniProt Q07343)
Experiment: TR-FRET assay using the LANCE Ultra cAMP kit to determine the activity of hPDE4B1
Format: biochemical
Conditions: IC50 inhibition of PDE4B, mean
Procedure, shortened: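 Recombinant human PDE4B1 (Sf9-expressed, 0.96 U) incubated with compound and 500 nM cAMP in 50 mM Tris-HCl, 50 mM MgCl2, 5 mM DTT, pH 8.5, 30 min at room temperature. Residual cAMP read by TR-FRET (665/620 nm ratio) after IBMX stop. IC50 from ten-concentration curves as % inhibition of control.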

human PDE4B1, sequence (Q07343 whole entry): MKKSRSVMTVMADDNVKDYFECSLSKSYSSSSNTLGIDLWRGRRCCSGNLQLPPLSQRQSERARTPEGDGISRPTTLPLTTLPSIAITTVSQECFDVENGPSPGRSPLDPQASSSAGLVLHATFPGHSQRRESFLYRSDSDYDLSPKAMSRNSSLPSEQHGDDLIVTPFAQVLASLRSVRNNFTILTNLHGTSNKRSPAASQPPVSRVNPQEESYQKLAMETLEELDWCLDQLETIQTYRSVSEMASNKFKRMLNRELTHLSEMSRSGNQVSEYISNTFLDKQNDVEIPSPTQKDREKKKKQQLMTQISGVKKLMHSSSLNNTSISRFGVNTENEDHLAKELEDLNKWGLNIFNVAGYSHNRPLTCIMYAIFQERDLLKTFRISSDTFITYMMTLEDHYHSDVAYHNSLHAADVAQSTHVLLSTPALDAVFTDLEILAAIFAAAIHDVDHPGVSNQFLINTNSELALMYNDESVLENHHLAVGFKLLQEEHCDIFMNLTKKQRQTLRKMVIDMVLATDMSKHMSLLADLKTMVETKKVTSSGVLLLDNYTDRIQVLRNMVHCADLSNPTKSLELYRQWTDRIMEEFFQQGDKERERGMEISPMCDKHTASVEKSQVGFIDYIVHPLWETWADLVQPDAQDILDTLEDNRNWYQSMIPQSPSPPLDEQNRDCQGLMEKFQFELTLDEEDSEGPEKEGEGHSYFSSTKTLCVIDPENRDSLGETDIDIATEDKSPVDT

Row | Compound | IC50
1 | O=C(c1ccc2c(c1)N(c1ncc(-c3cccc(O)c3)cn1)CC21CC1)N1CC2CC1CN2 (stereo not shown) [Compound 250, (2,5-Diazabicyclo[2.2.1]heptan-2-yl)-[1-[5-(3-hydroxyphenyl)-pyrimidin-2-yl]-spiro[1,2-dihydro-indole-3,1′-cyclopropane]-6-yl]-methanone] | < 0.1 µM
2 | CN(CCO)C(=O)c1ccc2c(c1)N(c1ncc(-c3cccnn3)cn1)CC21CC1 [Compound 262, N-(2-Hydorxy-ethyl)-N-methyl-1-(5-pyridazin-3-yl-pyrimidin-2-yl)-spiro[1,2-dihydro-indole-3,1′-cyclopropane]-6-carboxylic acid amide] | < 0.1 µM
3 | O=C(c1ccc2c(c1)N(c1ncc(-c3cccc(F)c3)cn1)CC21CC1)N1CC2CC1CN2 (stereo not shown) [Compound 223, (2,5-Diazabicyclo[2.2.1]heptan-2-l)-[1-[5-(3-fluorophenyl)-pyrimidin-2-yl]-spiro[1,2-dihydro-indole-3,1′-cyclopropane]-6-yl]-methanone] | < 0.1 µM
4 | Cc1ccnc(-c2cnc(N3CC4(CC4)c4ccc(C(=O)N5CCNC(=O)C5)cc43)nc2)c1 [Compound 222, 4-[1-[5-(4-Methyl-pyridin-2-yl)-pyrimidin-2-yl]-spiro[1,2-dihydro-indole-3,1′-cyclopropane]-6-carbonyl]-piperazin-2-one] | < 0.1 µM
5 | Cc1ccc(F)c(-c2cnc(N3CC4(CC4)c4ccc(C(=O)N(C)CCO)cc43)nc2)c1 [Compound 227, 1-[5-(2-Fluoro-5-methyl-phenyl)-pyrimidin-2-yl]-N-(2-hydroxy-ethyl)-N-methyl-spiro[1,2-dihydro-indole-3,1′-cyclopropane]-6-carboxylic acid amide] | < 0.1 µM
6 | CN(CCO)C(=O)c1ccc2c(c1)N(c1ncc(-c3ccccn3)cn1)CC21CC1 [Compound 229, N-(2-Hydroxy-ethyl)-N-methyl-1-(5-pyridin-2-yl-pyrimidin-2-yl)-spiro[1,2-dihydro-indole-3,1′-cyclopropane]-6-carboxylic acid amide] | < 0.1 µM
7 | COc1ccnc(-c2cnc(N3CC4(CC4)c4ccc(C(=O)N(C)CCO)cc43)nc2)c1 [Compound 224, N-(2-hydroxyethyl)-1′-(5-(4-methoxypyridin-2-yl)pyrimidin-2-yl)-N-methylspiro[cyclopropane-1,3′-indoline]-6′-carboxamide] | < 0.1 µM
8 | NC(=O)CN1CCN(C(=O)c2ccc3c(c2)N(c2ncc(-c4ccccc4F)cn2)CC32CC2)CC1 [Compound 236, 2-[4-[1-[5-(2-Fluorophenyl)-pyrimidin-2-yl]-spiro[1,2-dihydro-indole-3,1′-cyclopropane]-6-carbonyl]-piperazin-1-yl]-acetamide] | 0.1 to 1 µM
9 | CC(=O)Nc1ccnc(-c2cnc(N3CC4(CC4)c4ccc(C(=O)N5CC6CC5CN6)cc43)nc2)c1 (stereo not shown) [Compound 279, N-(2-(2-(6′-(2,5-diazabicyclo[2.2.1]heptane-2-carbonyl)spiro[cyclopropane-1,3′-indolin]-1′-yl)pyrimidin-5-yl)pyridin-4-yl)acetamide.HCl] | < 0.1 µM
10 | O=C(c1ccc2c(c1)N(c1ncc(-c3ccccc3F)cn1)CC21CC1)N1C[C@H]2C[C@@H]1CN2 [Compound 220, [(1R,4R)-2,5-Diazabicyclo[2.2.1]heptan-2-yl]-[1-[5-(2-fluorophenyl)-pyrimidin-2-yl]spiro[1,2-dihydro-indole-3,1′-cyclopropane]-6-yl]-methanone] | 0.1 to 1 µM

Results, then the compound that gave them:

Row | IC50 | Compound
11 | < 0.1 µM | Cc1ccnc(-c2cnc(N3CC4(CC4)c4ccc(C(=O)N(C)C)cc43)nc2)c1 [Compound 299, N,N-Dimethyl-1-[5-(4-methyl-pyridin-2-yl)-pyrimidin-2-yl]-spiro[1,2-dihydro-indole-3,1′-cyclopropane]-6-carboxylic acid amide]
12 | < 0.1 µM | O=C1CN(C(=O)c2ccc3c(c2)N(c2ncc(-c4cc(O)ccn4)cn2)CC32CC2)CCN1 [Compound 265, 4-[1-[5-(4-Hydroxy-pyridin-2-yl)-pyrimidin-2-yl]-spiro[1,2-dihydro-indole-3,1′-cyclopropane]-6-carbonyl]-piperazin-2-one]
13 | < 0.1 µM | CCc1ccnc(-c2cnc(N3CC4(CC4)c4ccc(C(=O)N5C[C@@H]6C[C@H]5CN6)cc43)nc2)c1 [Compound 298, [(1S,4S)-2,5-Diazabicyclo[2.2.1]heptan-2-yl]-[1-[5-(4-ethyl-pyridin-2-yl)-pyrimidin-2-yl]-spiro[1,2-dihydro-indole-3,1′-cyclopropane]-6-yl]-methanone]
14 | < 0.1 µM | CC(=O)Oc1cccc(-c2cnc(N3CC4(CC4)c4ccc(C(=O)N(C)CCO)cc43)nc2)c1 [Compound 358, Acetic acid [3-[2-[6-[(2-hydroxy-ethyl)-methyl-carbamoyl]-spiro[1,2-dihydro-indole-3,1′-cyclopropane]-1-yl]-pyrimidin-5-yl]-phenyl]ester]
15 | < 0.1 µM | CN(CCO)C(=O)c1ccc2c(c1)N(c1ncc(-c3cccc(S(C)(=O)=O)c3)cn1)CC21CC1 [Compound 277, N-(2-Hydroxy-ethyl)-N-methyl-1-[5-(3-methylsulfonyl-phenyl)-pyrimidin-2-yl]-spiro[1,2-dihydro-indole-3,1′-cyclopropane]-6-carboxylic acid amide]
16 | < 0.1 µM | CN(C)c1ccnc(-c2cnc(N3CC4(CC4)c4ccc(C(=O)N5CCCC5)cc43)nc2)c1 [Compound 276, [1-[5-(4-Dimethylamino-pyridin-2-yl)-pyrimidin-2-yl]-spiro[1,2-dihydro-indole-3,1′-cyclopropane]-6-yl]-pyrrolidin-1-yl-methanone]
17 | < 0.1 µM | O=C(c1ccc2c(c1)N(c1ncc(-c3ccccc3F)cn1)CC21CC1)N1CCC[C@@H](CO)C1 [Compound 313, [1-[5-(2-Fluorophenyl)-pyrimidin-2-yl]-spiro[1,2-dihydro-indole-3,1′-cyclopropane]-6-yl]-[(3R)-3-(hydroxymethyl)-piperidin-1-l]-methanone]
18 | < 0.1 µM | CN(CCO)C(=O)c1ccc2c(c1)N(c1ncc(-c3cc(C(F)(F)F)ccc3F)cn1)CC21CC1 [Compound 365, 1-[5-[2-Fluoro-5-(trifluoromethyl)-phenyl]-pyrimidin-2-yl]-N-(2-hydroxy-ethyl)-N-methyl-spiro[1,2-dihydro-indole-3,1′-cyclopropane]-6-carboxylic acid amide]
19 | < 0.1 µM | CCc1cccc(-c2cnc(N3CC4(CC4)c4ccc(C(=O)N(C)CCO)cc43)nc2)c1 [Compound 266, 1-[5-(3-Ethyl-phenyl)-pyrimidin-2-yl]-N-(2-hydroxy-ethyl)-N-methyl-spiro[1,2-dihydro-indole-3,1′-cyclopropane]-6-carboxylic acid amide]
